Values quoted from earlier work as cited in patent US8247398B2, “Zinc complexes of natural amino acids for treating elevated copper caused toxicities” (SSV Therapeutics, Inc., priority 2007, dated 2012).

Key:
[1] = system: metallothionein

zinc dipicolinate
metallothionein induction in the epidermis, sebaceous glands and hair follicles ([1]; same test as zinc histidine chelate (rats)): substantially raised

CC(=O)[O-].CC(=O)[O-].[Zn+2] [zinc acetate]
patients encountering persistent gastric irritation, burning sensation, and nausea (patients receiving zinc acetate therapy): About 10%
time before therapy is tolerable to the patient (taken on an empty stomach or in-between meals): several days or weeks

O=S(=O)([O-])[O-].[Zn+2] [Zinc sulfate, zinc sulfate]
patient discomfort compared with zinc acetate (Wilson's disease therapy): even more patient discomfort

N[C@@H](Cc1c[nH]cn1)C(=O)O.[Zn] [zinc histidine]
metallothionein production in livers ([1]; oral administration, male Wistar rat livers, within 12 hours): 14-39 fold over control group
